Laboratory results reported in US20260070945A1, “MACROCYCLIC IMMUNOMODULATORS” (Bristol-Myers Squibb Company, priority 2022, published 2026).
Where a SMILES comes first, the peptide text is derived from it. Bridges are numbered along the chain shown (N, C = ends). [ ]: non-standard residue; d: D form. The star is where a group is joined. ξ: configuration not given here. Phe(4-CONH2) = NC(=O)c1ccc(C[C@H](N)C(=O)O)cc1; Phe(4-COOH) = N[C@@H](Cc1ccc(C(=O)O)cc1)C(=O)O; Bip = N[C@@H](Cc1ccc(-c2ccccc2)cc1)C(=O)O; Phe(3-Me) = Cc1cccc(C[C@H](N)C(=O)O)c1; Val(3-OH) = CC(C)(O)[C@H](N)C(=O)O; Aad = N[C@@H](CCCC(=O)O)C(=O)O; Cha = N[C@@H](CC1CCCCC1)C(=O)O; Thr(3ξ) = CC(O)[C@H](N)C(=O)O; Carboxymethyl = O=C(O)C*; NMeA = CN[C@@H](C)C(=O)O; Aun = NCCCCCCCCCCC(=O)O; Dab = NCC[C@H](N)C(=O)O; AEEA = NCCOCCOCC(=O)O

These compounds were tested against T1, PD-1/PD-L1 interaction (PE-labeled human PD-L1-Ig binding to Jurkat cell line over-expressing human PD-1) (Homo sapiens, UniProt Q15116) (assay: Jurkat-PD-1 Cell Binding High-Content Screening Assay (CBA)). Conditions: Jurkat-hPD-1 cells, PE-labeled PD-L1-Ig 20 nM final; read-out: Jurkat HPD1 PDL1 IC50.
T1 construct: expressed in transfected cells; host or cells: Jurkat
Summary of the method: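 Binding of 20 nM (final) PE-tagged PD-L1-Ig to compound-pretreated Jurkat-hPD-1 cells was measured by high-content imaging after 1 h. Pretreatment ran 2 h at 37 °C in DMEM with 10% fetal calf serum.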

T1 sequence (Q15116 25-288): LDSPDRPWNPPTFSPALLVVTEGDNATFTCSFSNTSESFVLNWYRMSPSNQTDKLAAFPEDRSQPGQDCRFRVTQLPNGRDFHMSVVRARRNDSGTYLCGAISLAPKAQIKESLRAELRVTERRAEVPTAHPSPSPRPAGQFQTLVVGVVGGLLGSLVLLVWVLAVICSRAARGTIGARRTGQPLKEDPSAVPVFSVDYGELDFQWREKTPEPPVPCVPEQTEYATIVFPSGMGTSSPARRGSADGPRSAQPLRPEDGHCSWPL

SMILES	IC50 [nM]
Cc1cccc(C[C@@H]2NC(=O)[C@H](CC(=O)O)NC(=O)[C@H](Cc3ccc(OCC(=O)O)cc3)NC(=O)[C@H](C(C)O)NC(=O)CSC[C@@H](C(=O)N[C@@H](CCN)C(=O)NCCOCCOCC(=O)NCCCCCCCCCCC(=O)O)NC(=O)[C@H](CCC(=O)O)NC(=O)[C@H](C(C)(C)O)NC(=O)[C@H](CC3CCCCC3)NC(=O)[C@H](CCN)NC(=O)[C@@H](CC(C)C)NC(=O)[C@H](C)N(C)C(=O)[C@H](Cc3ccc(OCC(=O)O)cc3)NC(=O)[C@H](Cc3ccc(-c4ccccc4)cc3)NC(=O)[C@H](Cc3ccc(C(=O)O)cc3)NC2=O)c1 (stereo partly drawn) [Example 2473] ({CH2CO}-[Thr(3ξ)]Y(Carboxymethyl)D[Phe(3-Me)][Phe(4-COOH)][Bip]Y(Carboxymethyl)[NMeA][dL][Dab][Cha][Val(3-OH)]EC[Dab][AEEA][Aun]-OH; thioether N-14)	32.1
Cc1cccc(C[C@@H]2NC(=O)[C@H](CC(=O)O)NC(=O)[C@H](Cc3ccc(OCC(=O)O)cc3)NC(=O)[C@H](C(C)O)NC(=O)CSC[C@@H](C(=O)N[C@@H](CCN)C(=O)NCCOCCOCC(=O)NCCCCCCCCCCC(=O)O)NC(=O)[C@H](CC(N)=O)NC(=O)[C@H](C(C)(C)O)NC(=O)[C@H](CC3CCCCC3)NC(=O)[C@H](CCN)NC(=O)[C@@H](CC(C)C)NC(=O)[C@H](C)N(C)C(=O)[C@H](Cc3ccc(OCC(=O)O)cc3)NC(=O)[C@H](Cc3ccc(-c4ccccc4)cc3)NC(=O)[C@H](Cc3ccc(C(=O)O)cc3)NC2=O)c1 (stereo partly drawn) [Example 2474] ({CH2CO}-[Thr(3ξ)]Y(Carboxymethyl)D[Phe(3-Me)][Phe(4-COOH)][Bip]Y(Carboxymethyl)[NMeA][dL][Dab][Cha][Val(3-OH)]NC[Dab][AEEA][Aun]-OH; thioether N-14)	24.9
Cc1cccc(C[C@@H]2NC(=O)[C@H](CC(=O)O)NC(=O)[C@H](Cc3ccc(OCC(=O)O)cc3)NC(=O)[C@H](C(C)O)NC(=O)CSC[C@@H](C(=O)N[C@@H](CCN)C(=O)NCCOCCOCC(=O)NCCCCCCCCCCC(=O)O)NC(=O)[C@H](CCC(N)=O)NC(=O)[C@H](C(C)C)NC(=O)[C@H](CC3CCCCC3)NC(=O)[C@H](CCN)NC(=O)[C@@H](CC(C)C)NC(=O)[C@H](C)N(C)C(=O)[C@H](Cc3ccc(OCC(=O)O)cc3)NC(=O)[C@H](Cc3ccc(-c4ccccc4)cc3)NC(=O)[C@H](Cc3ccc(C(=O)O)cc3)NC2=O)c1 (stereo partly drawn) [Example 2475] ({CH2CO}-[Thr(3ξ)]Y(Carboxymethyl)D[Phe(3-Me)][Phe(4-COOH)][Bip]Y(Carboxymethyl)[NMeA][dL][Dab][Cha]VQC[Dab][AEEA][Aun]-OH; thioether N-14)	18.9
Cc1cccc(C[C@@H]2NC(=O)[C@H](CC(=O)O)NC(=O)[C@H](Cc3ccc(OCC(=O)O)cc3)NC(=O)[C@H](C(C)O)NC(=O)CSC[C@@H](C(=O)N[C@@H](CCN)C(=O)NCCOCCOCC(=O)NCCCCCCCCCCC(=O)O)NC(=O)[C@H](CCCC(=O)O)NC(=O)[C@H](C(C)C)NC(=O)[C@H](CC3CCCCC3)NC(=O)[C@H](CCN)NC(=O)[C@@H](CC(C)C)NC(=O)[C@H](C)N(C)C(=O)[C@H](Cc3ccc(OCC(=O)O)cc3)NC(=O)[C@H](Cc3ccc(-c4ccccc4)cc3)NC(=O)[C@H](Cc3ccc(C(=O)O)cc3)NC2=O)c1 (stereo partly drawn) [Example 2476] ({CH2CO}-[Thr(3ξ)]Y(Carboxymethyl)D[Phe(3-Me)][Phe(4-COOH)][Bip]Y(Carboxymethyl)[NMeA][dL][Dab][Cha]V[Aad]C[Dab][AEEA][Aun]-OH; thioether N-14)	14.4
Cc1cccc(C[C@@H]2NC(=O)[C@H](CC(=O)O)NC(=O)[C@H](Cc3ccc(C(=O)O)cc3)NC(=O)[C@H](C(C)O)NC(=O)CSC[C@@H](C(=O)N[C@@H](CCN)C(=O)NCCOCCOCC(=O)NCCCCCCCCCCC(=O)O)NC(=O)[C@H](Cc3ccc(C(=O)O)cc3)NC(=O)[C@H](C(C)C)NC(=O)[C@H](CC3CCCCC3)NC(=O)[C@H](CCN)NC(=O)[C@@H](CC(C)C)NC(=O)[C@H](C)N(C)C(=O)[C@H](Cc3ccc(OCC(=O)O)cc3)NC(=O)[C@H](Cc3ccc(-c4ccccc4)cc3)NC(=O)[C@H](Cc3ccc(C(=O)O)cc3)NC2=O)c1 (stereo partly drawn) [Example 2477] ({CH2CO}-[Thr(3ξ)][Phe(4-COOH)]D[Phe(3-Me)][Phe(4-COOH)][Bip]Y(Carboxymethyl)[NMeA][dL][Dab][Cha]V[Phe(4-COOH)]C[Dab][AEEA][Aun]-OH; thioether N-14)	24.5
Cc1cccc(C[C@@H]2NC(=O)[C@H](CC(=O)O)NC(=O)[C@H](Cc3ccc(OCC(=O)O)cc3)NC(=O)[C@H](C(C)O)NC(=O)CSC[C@@H](C(=O)N[C@@H](CCN)C(=O)NCCOCCOCC(=O)NCCCCCCCCCCC(=O)O)NC(=O)[C@H](Cc3ccc(OCC(=O)O)cc3)NC(=O)[C@H](C(C)C)NC(=O)[C@H](CC3CCCCC3)NC(=O)[C@H](CCN)NC(=O)[C@@H](CC(C)C)NC(=O)[C@H](C)N(C)C(=O)[C@H](Cc3ccc(OCC(=O)O)cc3)NC(=O)[C@H](Cc3ccc(-c4ccccc4)cc3)NC(=O)[C@H](Cc3ccc(C(=O)O)cc3)NC2=O)c1 (stereo partly drawn) [Example 2478] ({CH2CO}-[Thr(3ξ)]Y(Carboxymethyl)D[Phe(3-Me)][Phe(4-COOH)][Bip]Y(Carboxymethyl)[NMeA][dL][Dab][Cha]VY(Carboxymethyl)C[Dab][AEEA][Aun]-OH; thioether N-14)	25.2
Cc1cccc(C[C@@H]2NC(=O)[C@H](CC(=O)O)NC(=O)[C@H](Cc3ccc(OCC(=O)O)cc3)NC(=O)[C@H](C(C)O)NC(=O)CSC[C@@H](C(=O)N[C@@H](CCN)C(=O)NCCOCCOCC(=O)NCCCCCCCCCCC(=O)O)NC(=O)[C@H](CC(=O)O)NC(=O)[C@H](C(C)C)NC(=O)[C@H](CC3CCCCC3)NC(=O)[C@H](CCN)NC(=O)[C@@H](CC(C)C)NC(=O)[C@H](C)N(C)C(=O)[C@H](Cc3ccc(OCC(=O)O)cc3)NC(=O)[C@H](Cc3ccc(-c4ccccc4)cc3)NC(=O)[C@H](Cc3ccc(C(=O)O)cc3)NC2=O)c1 (stereo partly drawn) [Example 2479] ({CH2CO}-[Thr(3ξ)]Y(Carboxymethyl)D[Phe(3-Me)][Phe(4-COOH)][Bip]Y(Carboxymethyl)[NMeA][dL][Dab][Cha]VDC[Dab][AEEA][Aun]-OH; thioether N-14)	19.6
Cc1cccc(C[C@@H]2NC(=O)[C@H](CC(=O)O)NC(=O)[C@H](Cc3ccc(C(N)=O)cc3)NC(=O)[C@H](C(C)O)NC(=O)CSC[C@@H](C(=O)N[C@@H](CCN)C(=O)NCCOCCOCC(=O)NCCCCCCCCCCC(=O)O)NC(=O)[C@H](CCC(=O)O)NC(=O)[C@H](C(C)C)NC(=O)[C@H](CC3CCCCC3)NC(=O)[C@H](CCN)NC(=O)[C@@H](CC(C)C)NC(=O)[C@H](C)N(C)C(=O)[C@H](Cc3ccc(OCC(=O)O)cc3)NC(=O)[C@H](Cc3ccc(-c4ccccc4)cc3)NC(=O)[C@H](Cc3ccc(C(=O)O)cc3)NC2=O)c1 (stereo partly drawn) [Example 2480] ({CH2CO}-[Thr(3ξ)][Phe(4-CONH2)]D[Phe(3-Me)][Phe(4-COOH)][Bip]Y(Carboxymethyl)[NMeA][dL][Dab][Cha]VEC[Dab][AEEA][Aun]-OH; thioether N-14)	17.4
Cc1cccc(C[C@@H]2NC(=O)[C@H](CC(=O)O)NC(=O)[C@H](Cc3ccc(OCC(=O)O)cc3)NC(=O)[C@H](C(C)O)NC(=O)CSC[C@@H](C(=O)N[C@@H](CCN)C(=O)NCCOCCOCC(=O)NCCCCCCCCCCC(=O)O)NC(=O)[C@H](CCC(=O)O)NC(=O)[C@H](C(C)C)NC(=O)[C@H](CC3CCCCC3)NC(=O)[C@H](CCN)NC(=O)[C@@H](CC(C)C)NC(=O)[C@H](C)N(C)C(=O)[C@H](Cc3ccc(OCC(=O)O)cc3)NC(=O)[C@H](Cc3ccc(-c4ccccc4)cc3)NC(=O)[C@H](Cc3ccc(C(=O)O)cc3)NC2=O)c1 (stereo partly drawn) [Example 2481] ({CH2CO}-[Thr(3ξ)]Y(Carboxymethyl)D[Phe(3-Me)][Phe(4-COOH)][Bip]Y(Carboxymethyl)[NMeA][dL][Dab][Cha]VEC[Dab][AEEA][Aun]-OH; thioether N-14)	14.6
Cc1cccc(C[C@@H]2NC(=O)[C@H](CC(=O)O)NC(=O)[C@H](Cc3ccc(OCC(=O)O)cc3)NC(=O)[C@H](C(C)O)NC(=O)CSC[C@@H](C(=O)N[C@@H](CCN)C(=O)NCCOCCOCC(=O)NCCOCCOCC(=O)NCCCCCCCCCCC(=O)O)NC(=O)[C@H](CCC(=O)O)NC(=O)[C@H](C(C)C)NC(=O)[C@H](CC3CCCCC3)NC(=O)[C@H](CCN)NC(=O)[C@@H](CC(C)C)NC(=O)[C@H](C)N(C)C(=O)[C@H](Cc3ccc(OCC(=O)O)cc3)NC(=O)[C@H](Cc3ccc(-c4ccccc4)cc3)NC(=O)[C@H](Cc3ccc(C(=O)O)cc3)NC2=O)c1 (stereo partly drawn) [Example 2482] ({CH2CO}-[Thr(3ξ)]Y(Carboxymethyl)D[Phe(3-Me)][Phe(4-COOH)][Bip]Y(Carboxymethyl)[NMeA][dL][Dab][Cha]VEC[Dab][AEEA][AEEA][Aun]-OH; thioether N-14)	20.7
Cc1cccc(C[C@@H]2NC(=O)[C@H](CC(=O)O)NC(=O)[C@H](Cc3ccc(OCC(=O)O)cc3)NC(=O)[C@H](CCN)NC(=O)CSC[C@@H](C(=O)N[C@@H](CCN)C(=O)NCCCCCCCCCCC(=O)O)NC(=O)[C@H](Cc3c[nH]cn3)NC(=O)[C@H](C(C)(C)O)NC(=O)[C@H](CC3CCCCC3)NC(=O)[C@H](CCN)NC(=O)[C@@H](CC(C)C)NC(=O)[C@H](C)N(C)C(=O)[C@H](Cc3ccc(OCC(=O)O)cc3)NC(=O)[C@H](Cc3ccc(-c4ccccc4)cc3)NC(=O)[C@H](Cc3ccc(OCC(=O)O)cc3)NC2=O)c1 [Example 2483] ({CH2CO}-[Dab]Y(Carboxymethyl)D[Phe(3-Me)]Y(Carboxymethyl)[Bip]Y(Carboxymethyl)[NMeA][dL][Dab][Cha][Val(3-OH)]HC[Dab][Aun]-OH; thioether N-14)	12.6
